In data set [1] the test system is C. albicans (ATCC 10231). The data set can be described thus: Inhibition zone, paper disk/agar diffusion. In kind it is cell-based. As to conditions: Na = no activity. From the text: (§1) The antimicrobial activity performed at the bacteriology laboratory, Botany and Microbiology Department, Faculty of Science, Al-Azhar University, Cairo, Egypt. The inhibition zone (IZ) of the tested derivatives expressed as the diameter (mm) according to the agar plate diffusion method.
On the technique in general: Agar diffusion results depend on both activity and mobility in agar.

Data set [2] relates to F. oxysporum (RCMB 008002). The data set can be described thus: Inhibition zone, paper disk/agar diffusion. The class given is cell-based. As to conditions: Na = no activity.
Text: as §1

For data set [3], the system named is C. albicans (ATCC 10231). Briefly: MIC and MFC determination. The class given is cell-based.
Data set [4] concerns F. oxysporum (RCMB 008002). The data set can be described thus: MIC and MFC determination. In kind it is cell-based.
The subject of a further data set is B. subtilis ATCC 6633. The data set can be described thus: Inhibition zone, paper disk/agar diffusion. The class given is cell-based. To be noted: B. subtilis; Na = no activity.
Text: as §1

Another data set has as its system S. aureus ATCC 29213. Briefly: Inhibition zone, paper disk/agar diffusion. As to conditions: S. aureus; Na = no activity. In kind it is cell-based.
Text: as §1

For a further data set, the system named is S. typhi ATCC 6539. The data set can be described thus: Inhibition zone, paper disk/agar diffusion. In kind it is cell-based. As to conditions: S. typhi; Na = no activity.
Text: as §1

In the next data set the test system is E. coli ATCC 25922. Briefly: Inhibition zone, paper disk/agar diffusion. In kind it is cell-based. As to conditions: E. coli; Na = no activity.
Text: as §1

In a further data set the test system is E. faecalis ATCC 29212. The data set can be described thus: Inhibition zone, paper disk/agar diffusion. As to conditions: E. faecalis; Na = no activity. The class given is cell-based.
Text: as §1

Another data set concerns P. aeruginosa ATCC 27853. Briefly: Inhibition zone, paper disk/agar diffusion. In kind it is cell-based. To be noted: P. aeruginosa; Na = no activity.
Text: as §1

Values after ≈ are worked out from the molar mass of the structure shown. Like-named read-outs stand apart in the source and are kept apart here.

Take `C[C@@H]1[C@H](O)[C@@H](C)/C=C/C=C/C=C/C=C/C=C/C=C/C=C/[C@H](O[C@@H]2O[C@H](C)[C@@H](O)[C@H](N)[C@@H]2O)C[C@@H]2O[C@](O)(C[C@@H](O)C[C@@H](O)[C@H](O)CC[C@@H](O)C[C@@H](O)CC(=O)O[C@H]1C)C[C@H](O)[C@H]2C(=O)O` [Amphotericin B, amphotericin B, reference compound]: the “Mean Diameter of the Inhibition Zone” value in the data set with C. albicans (ATCC 10231) [1] was found to be 22 ± 0.2 mm; in the data set on C. albicans (ATCC 10231) [1] (listed as S2), 22 ± 0.20 mm; in [2], 18 ± 0.32 mm. In addition, the MFC in the data set with C. albicans (ATCC 10231) [3] (Candida albicans, ATCC10231, read-out: MFC) is 37.3 µM (≈ 34.4 µg/mL); in the data set on C. albicans (ATCC 10231) [3] (listed as Amp. B) it was 37.26 ± 0.65 µM (≈ 34.4 µg/mL); in data set [4] (Fusarium oxysporum, RCMB008002, read-out: MFC), 70.6 µM (≈ 65.3 µg/mL); in [4] (listed as Amp. B) it was 70.62 ± 0.76 µM (≈ 65.3 µg/mL). For the same molecule, the minimal inhibitory concentration (MIC) in the data set with C. albicans (ATCC 10231) [3] (Candida albicans, ATCC10231, read-out: MIC) turned out to be 16.8 µM (≈ 15.5 µg/mL); with C. albicans (ATCC 10231) [3] (listed as Amp. B), 16.81 ± 0.29 µM (≈ 15.5 µg/mL); in data set [4] (Fusarium oxysporum, RCMB008002, read-out: MIC), 33.6 µM (≈ 31.1 µg/mL); in data set [4] (listed as Amp. B) it was 33.63 ± 0.98 µM (≈ 31.1 µg/mL).
The molecule `COc1ccc(-c2c(C(=O)Nc3ccc(S(=O)(=O)NC(=N)N)cc3)c(N)[nH]c(=O)c2C#N)cc1` [Compound 6, 2-Amino-N-(4-(carbamimidoylsulfamoyl)phenyl)-5-cyano-4-(4-methoxyphenyl)-6-oxo-1,6-dihydropyridine-3-carboxamide] came in with a melting point of 265 to 268 °C. Moreover, the “Mean Diameter of the Inhibition Zone” value in the data set on B. subtilis ATCC 6633 is 18 ± 0.12 mm. The “Mean Diameter of the Inhibition Zone” value with C. albicans (ATCC 10231) [1] is 18 ± 0.20 mm. Besides, the “Mean Diameter of the Inhibition Zone” value in [2] came to 14 ± 0.38 mm. Besides, the “Mean Diameter of the Inhibition Zone” value in the data set with S. aureus ATCC 29213 is 16 ± 0.54 mm. Besides, the “Mean Diameter of the Inhibition Zone” value with S. typhi ATCC 6539 was found to be 12 ± 0.61 mm.
As to `Cc1cc(C=Cc2ccc(Cl)cc2)c(C#N)c(=O)n1-c1ccc(S(=O)(=O)NC(=N)N)cc1` [Compound 9a, N-Carbamimidoyl-4-(4-(4-chlorostyryl)-3-cyano-6-methyl-2-oxopyridin-1(2H)-yl) benzene-sulfonamide], the “Mean Diameter of the Inhibition Zone” value in the data set on B. subtilis ATCC 6633 is 22 ± 0.41 mm; in the data set with C. albicans (ATCC 10231) [1] it was 19 ± 0.65 mm; with E. coli ATCC 25922 it was 18 ± 0.30 mm; in the data set with E. faecalis ATCC 29212, 25 ± 0.11 mm; in data set [2] it was “no activity”; in the data set on S. aureus ATCC 29213 it was 17 ± 0.78 mm. Moreover, the “Mean Diameter of the Inhibition Zone” value with S. typhi ATCC 6539 is listed as 14 ± 0.52 mm.
`COc1ccc(C=Cc2cc(C)n(-c3ccc(S(=O)(=O)NC(=N)N)cc3)c(=O)c2C#N)cc1` [Compound 9b, N-Carbamimidoyl-4-(3-cyano-4-(4-methoxystyryl)-6-methyl-2-oxopyridin-1(2H)-yl) benzene sulfonamide]: the “Mean Diameter of the Inhibition Zone” value in the data set with B. subtilis ATCC 6633 was determined as 23 ± 0.50 mm; in the data set on C. albicans (ATCC 10231) [1], 17 ± 0.56 mm; in the data set with E. coli ATCC 25922 it was 22 ± 0.81 mm; in the data set on E. faecalis ATCC 29212, 21 ± 0.55 mm; in data set [2], 15 ± 0.15 mm; in the data set on P. aeruginosa ATCC 27853, 16 ± 0.20 mm. The “Mean Diameter of the Inhibition Zone” value stood at 23 ± 0.12 mm in the data set on S. aureus ATCC 29213 and 20 ± 0.16 mm with S. typhi ATCC 6539.
On to `Cc1cc2csc(N)c2c(=O)n1-c1ccc(S(=O)(=O)NC(=N)N)cc1` [Compound 10, 4-(3-Amino-6-methyl-4-oxothieno[3,4-c]pyridin-5(4H)-yl)-N-carbamimidoylbenzenesulfon-amide], for which the “Mean Diameter of the Inhibition Zone” value was 14 ± 0.56 mm in the data set on B. subtilis ATCC 6633; 14 ± 0.45 mm in the data set with C. albicans (ATCC 10231) [1]; 20 ± 0.43 mm in the data set on E. coli ATCC 25922; 19 ± 0.63 mm with E. faecalis ATCC 29212; 16 ± 0.86 mm in [2]; 21 ± 0.54 mm in the data set on P. aeruginosa ATCC 27853. The “Mean Diameter of the Inhibition Zone” value with S. aureus ATCC 29213 came to 17 ± 0.48 mm; in the data set on S. typhi ATCC 6539, 12 ± 0.35 mm.

Broadly, the MIC is the lowest concentration found to suppress growth. The term melting point denotes the temperature, or range, at which the solid turns liquid.

For the origin of these results see publication PMC7915026, “Sulfaguanidine Hybrid with Some New Pyridine-2-One Derivatives: Design, Synthesis, and Antimicrobial Activity against Multidrug-Resistant Bacteria as Dual DNA Gyrase and DHFR Inhibitors” (Antibiotics, 2021).
